# Reference: patent US4413007A, “Pesticidal symmetrical N-substituted bis-carbamoyloximino disulfide compounds” (priority 1978, dated 1983)
# Legend:
# [1] = test system: root-knot nematode (Meloidogyne incognita var. acrita); test: Nematode Test; assay type: in vivo; parameters: key: 1: severe galling; equal to untreated control; 2: moderate galling; 3: light galling; 4: very light galling; 5: no galling; conditions: 10 ml of 500 ppm formulation per jar (approx. 180 cc soil), cucumber indicator crop, approx. three weeks
# Method: (§1) Suspensions of the test compounds were prepared by dissolving one gram of compound in 50 milliliters of acetone in which had been dissolved 0.1 gram (10 percent of the weight of compound) of an alkylphenoxy polyethoxyethanol surfactant, as an emulsifying or dispersing agent. The resulting solution was mixed into 150 milliliters of water to give roughly 200 milliliters of a suspension containing the compound in finely divided form. The thus-prepared stock suspension contained 0.5 percent by weight of compound. The test concentrations in parts per million by weight employed in the tests described hereinbelow were obtained by appropriate dilutions of the stock suspension with water. The test procedures were as follows:
# Infective migratory larvae of the root-knot nematode, (Meloidogyne incognita var. acrita) were reared in the greenhouse on roots of Rutgers variety tomato plant. Infected tomato plants were removed from the culture and the roots were chopped very finely. A small amount of inoculum from the roots was added to pint Mason jars containing approximately 180 cc of soil. The jars containing the inoculum and soil were capped and incubated for one week at room temperature. During this period eggs of the nematode hatched and the larvae forms migrated into the soil.
# The test compounds were formulated by diluting the stock suspension with water to give a suspension containing 500 parts of test compound per million parts of final formulation. 10 milliliters of the test formulation was added to each of two jars for each dosage treated. As a control 10 milliliters of a water-acetone-emulsifier solution containing no test compound was also added to jars containing nematode larvae. The jars were capped and the contents thoroughly mixed on a kale mill for five minutes. The jars remained capped at room temperature for a period of 48 hours and the contents were then transferred to 3 inch pots. Subsequently, the pots were seeded to cucumber as an indicator crop and placed in the green house where they were cared for in the normal fashion for growing potted cucumber for approximately three weeks. These cucumber plants were then removed from the pots, the soil washed from the roots and the amount of galling visually rated.
# The nematocidal toxicity has the following ratings;
# [2] = test system: bean aphid (Aphis fabae Scop.); test: Bean Aphid Foliage Spray Test; assay type: in vivo; parameters: key: A: excellent control; B: partial control; C: no control; conditions: 500 ppm, 24 hour holding period
# Method: as §1
# Adults and nymphal stages of the bean aphid (Aphis fabae Scop.) reared on potted dwarf nasturtium plants at 65°-70° F. and 50-70 percent relative humidity, constituted the test insects. For testing purposes, the number of aphids per pot was standardized to 100-150 by trimming plants containing excess aphids.
# The test compounds were formulated by diluting the stock suspension with water to give a suspension containing 500 parts of test compound per million parts of final formulation.
# The potted plants (one pot per compound tested) infested with 100-150 aphids, were placed on a revolving turntable and sprayed with 100-110 milliliters of test compound formulation by use of a DeVilbiss spray gun set at 40 psig. air pressure. This application, which tested 25 seconds, was sufficient to wet the plants to run-off. As a control, 100-110 milliliters of a water-acetone-emulsifier solution containing no test compound were also sprayed on infested plants. After spraying, the pots were placed on their sides on a sheet of white standard mimeograph paper which had been previously ruled to facilitate counting. Temperature and humidity in the test room during the 24 hour holding period were 65°-70° F. and 50-70 percent, respectively. Aphids which fell onto the paper and were unable to remain standing after being uprighted were considered dead. Aphids remaining on the plants were observed closely for movement and those which were unable to move the length of the body upon stimulation by prodding were considered dead. Percent mortality was recorded for various concentration levels.
# In these tests the pesticidal activity of the compounds against aphid, mite, Southern Armyworm, Bean Beetle and house fly was rated as follows: […]
# [3] = Peroral toxicity to mammals (rat); conditions: in vivo, po, 50 percent mortality, read-out: A.O. Rat (LD50)
# Method: Certain of these compositions were also evaluated to determine their peroral toxicity to mammals. The animal selected for this experiment was the rat. The test results obtained are expressed in terms of the number of milligrams of compositions per kilogram of weight of the animal required to achieve a mortality rate of 50 percent (LD50).
structure (smiles),measurement,setting,value
"CN(SSN(C)C(=O)ON=C1CSCCS1)C(=O)ON=C1CSCCS1 [N,N'-Bis-[1,4-Dithiane-2-O-(N-methylcarbamoyl)oximino]disulfide]",Root-Knot Nematode galling rating,[1],1
same,Bean Aphid control rating,[2],A
same,LD50,[3],160 mg/kg
"CC(=NOC(=O)N(C)SSN(C)C(=O)ON=C(C)SCCC#N)SCCC#N [N,N'-Bis-[1-(2-Cyanoethylthio)acetaldehyde O-(N-methylcarbamoyl)oxime]disulfide]",Root-Knot Nematode galling rating,[1],4
same,Bean Aphid control rating,[2],A
same,LD50,[3],80 mg/kg
"CSC(C)=NOC(=O)N(C)SSN(C)C(=O)ON=C(C)SC [N,N'-Bis-[1-Methylthioacetaldehyde O-(N-methylcarbamoyl)oxime]disulfide]",Root-Knot Nematode galling rating,[1],1
same,Bean Aphid control rating,[2],A
same,LD50,[3],190 mg/kg
